According to patent publication US20230201183A1, “METHODS TO […] ENHANCE MULTIPLE […] PROTEOSTASIS […] TO TREAT NEURODEGENERATION AND STORAGE DISEASES” (Northwestern University, priority 2021, published 2023):

What was measured:
[1] = test system: SNCA-3X DA neurons and α-syn overexpressing cell lines; test: ER stress induction, UPR markers (mRNA/protein); format: cell-based, human; conditions: for XBP1-S / mRNA/protein levels of ER chaperones including GRP78, GRP94, and CANX: 30 nM Tg or 50 ng/ml BFA for 24 hours
Method: Total RNA was isolated from cells in a 24 or 12 well format using an RNeasy Mini Prep kit (QIAGEN). cDNA was synthesized by reverse transcriptase PCR (RT-PCR) using the RevertAid First Strand cDNA synthesis kit (Thermo Fisher Scientific). Quantitative PCR was performed on the Applied Biosystems 7500 Fast system using the cDNA and pre-designed TaqMan-primer probes for the target genes. The target mRNA expression was quantified relative to GAPDH or […] using the delta-delta-Ct method, and represented as a fold change.

[2] = test system: midbrain neurons from a GD (N370S/84GG) and a PD patient that harbors a GBA1 mutation (N370S/wt); test: GCase maturation and α-syn western blot in GBA1 mutant patient neurons; conditions: GD (N370S/84GG) and GBA-PD (N370S/wt) neurons; two weeks
[3] = test system: A53T iPSn; test: α-syn sequential extraction/western blot; format: cell-based, human; conditions: 10 mM GlcNAc for 7 days
Method: (§1) Protein extraction was done as described in detail (Stojkovska and Mazzulli, 2021). […] Supernatant was discarded and the cell pellets were subjected to homogenization in 1% Triton X-100 buffer (1% Triton X-100, 20 mM HEPES pH 7.4, 150 mM NaCl, 10% glycerol, 1 mM EDTA, 1.5 mM MgCl2, 1 mM phenylmethanesulfonyl fluoride (PMSF), 50 mM NaF, 2 mM Na orthovanadate, and a protease inhibitor cocktail (Roche diagnostics, https://www.roche.com, #11-836-170-001)) by homogenization. […] Protein band intensities was quantified by the ImageStudio software ver 3.1.
(§2) The transfection was performed with X-tremeGENE transfection reagent (Roche #6366236001) as described previously (Cuddy et al., 2019). Lentiviral particles were collected from the media and concentrated using Lenti-X concentrator (Clontech, #631232). […] The viral particle number and the number of plated cells was used to calculate the multiplicity of infection (MOI). For GFPT2 Overexpression the A53T neurons were infected at MOI-3 and harvested 2 weeks post-infection. A53T neurons were infected with XBP1^s lentivirus at MOI-1 and harvested 16 days post-infection. Neurons infected with lentivirus expressing GFP was used as control.
iPSC neurons were supplemented with or without GlcNAc (A3286-sigma) at 10 mM for 7 days in PBS.

[4] = test system: A53T iPSn; test: Hex B glycosylation and maturation by western blot; format: cell-based, human
Method: as §1
as §2, with “. The transfection” for “The transfection”, “days post-infection. […]” for “days post-infection. Neurons infected with lentivirus expressing GFP was used as control.”
(§3) Neurons were treated with or without 5 ug/ml tunicamycin (EMD Millipore/Calbiochem) for 24 hrs. Cells were extracted in 1% Triton X-100 buffer and analyzed by western blot for Hex B, Con-A, or GFPT2 as described in “Sequential protein extraction and western blotting analysis”. […]

[5] = test system: A53T iPSn; test: GCase solubility and maturation (sequential extraction, Endo H, western blot); format: cell-based, human; conditions: 10 mM GlcNAc for 7 days
Method: as §1
Analysis of post-ER GCase: This assay was performed as described in detail (Cuddy and Mazzulli, 2021). Briefly, 40 ug of lysate were subjected to Endoglycosidase H (Endo H) digestion as per the manufacturer's protocol (New England Biolabs, https://www.neb.com) at 37° C. for 2 h. Duplicate samples without enzyme were incubated under the same conditions serving as control (undigested samples). […] Endo H resistant bands migrating 62-64 kDa were measured as post-ER forms and maturation was calculated by quantifying the post-ER/ER ratios. Quantification was performed on Image Studio software (Licor). […] Standard error of the mean values were graphed, analyzed by student's t-test, and p values <0.05 were considered significant. […]

[6] = test system: A53T iPSn; test: Neurofilament toxicity assay (neuron viability); format: cell-based, human
Method: iPSC-neurons 96 well format were fixed in 4% paraformaldehyde in PBS for 20 minutes, followed by incubation in 0.3% Triton X-100 (PBS) for 20 min. The cells were then blocked with Odyssey blocking buffer (Li-Cor) for 1 h. Anti-neurofilament antibody (1:1000, mouse IgG 2H3, Developmental Studies Hybridoma Bank, University of Iowa, Iowa City, Iowa) was incubated overnight in blocking buffer at 4° C., followed by washing in PBS with 0.1% Tween for 20 min. IRdye 800-conjugated anti-mouse IgG antibodies (1:1000 dilution, Li-Cor) was incubated in blocking buffer for 1 hour and CellTag™ 700 (Li-Cor) was also added for normalization. The Cells were washed four times in PBS-0.1% Tween and scanned on an Odyssey infrared imaging system (Li-Cor). Neurofilament intensity was determined by Image Studio software (version 2.1 Li-Cor) and normalized to […].
as §2, with “A53T neurons were infected with XBP1^s lentivirus at MOI-1 and harvested 16 days post-infection. Neurons infected with lentivirus expressing GFP was used as control.” left out

[7] = test system: lysosomal GCase; test: Live-cell lysosomal GCase activity assay; format: cell-based, human; conditions: live A53T patient neurons; 10 mM GlcNAc
Method: Live-cell lysosomal GCase activity assay. The procedure and analysis method for the activity assay has been previously described in detail (Cuddy and Mazzulli, 2021). Briefly, one day prior to the assay, cells were treated with 1 mg/ml cascade dextran blue (Life Technologies) in a 96-well plate for 24 hours. This was followed by treatment of cells with DMSO or 200 nM bafilomycin A1 for 1 hour at 37° C. The cells were subjected to 1 hour pulse chase with an artificial fluorescent GCase substrate, 100 ug/ml 5-(pentafluoro-benzoylamino) fluorescein di-ß-D-glucopyranoside (PFB-FDGluc; Life Technologies), at 37° C. The fluorescence signal was measured every 30 minutes for the span of 3-4 hours on a plate reader (Ex=485 nm, Em=530 nm, for the GCase substrates; Ex=400 nm, Em=430 nm for cascade dextran blue). For the analysis, the GCase fluorescence signal was normalized to either lysosomal mass by using cascade dextran blue signal or total cell volume by quantifying CellTag 700 staining signal.
The transfection was performed with X-tremeGENE transfection reagent (Roche #6366236001) as described previously (Cuddy et al., 2019). Lentiviral particles were collected from the media and concentrated using Lenti-X concentrator (Clontech, #631232). […] The viral particle number and the number of plated cells was used to calculate the multiplicity of infection (MOI). […]

[8] = test system: A53T iPSn; test: N-glycosylated proteins by Con A-biotin western blot; format: cell-based, human
Method: as §1
as §2, with “. The transfection” for “The transfection”, “days post-infection. […]” for “days post-infection. Neurons infected with lentivirus expressing GFP was used as control.”
as §3

[9] = test system: wild-type or isogenic control neurons; test: ER stress induction and insoluble GCase in control neurons; format: cell-based, human; conditions: 30 nM Tg for 24 hours
[10] = test system: A53T iPSn; test: Quantitative RT-PCR mRNA analysis; format: cell-based, human
Method: (§4) Measurement of RNA. Total RNA was extracted and isolated using the PureLink RNA Mini Kit (Thermofisher Scientific). cDNA was synthesized using the RevertAid First Strand cDNA Synthesis Kit (Thermofisher Scientific). Real-time PCR was performed on an Applied Biosystems 7500 Fast system using pre-designed Taqman-primer probe sets: DPAGT1 (Hs00609752_m1), GFPT2 (Hs01049570_m1), XBP1U (Hs02856596_m1), XBP1s (Hs03929085_g1), GRP78 (Hs99999174_m1), HSP90B1/GRP94 (Hs00427665_g1), GBA1 (Hs00164683_m1), HexB (Hs01077594_m1) and ACTB (Hs01060665_g1). The quantifications represent the fold change of target mRNA expression normalized to beta-actin (ACTB) levels by delta-Ct method. The values are mean and s.e.m of biological replicates (n=3-6) with two technical replicates for each.
. The transfection was performed with X-tremeGENE transfection reagent (Roche #6366236001) as described previously (Cuddy et al., 2019). Lentiviral particles were collected from the media and concentrated using Lenti-X concentrator (Clontech, #631232). […]
as §3

[11] = test system: isogenic control iPSn; test: Hex B glycosylation by western blot; format: cell-based, human; conditions: control cells; tunicamycin
Method: as §1
(§5) Neurons were treated with or without 5 ug/ml tunicamycin (EMD Millipore/Calbiochem) for 24 hrs. Cells were extracted in 1% Triton X-100 buffer and analyzed by western blot for Hex B, Con-A, or GFPT2 as described in “Sequential protein extraction and western blotting analysis”. For mRNA measurement, total RNA was extracted and isolated as described in “Measurement of mRNA.” cDNA was synthesized and subjected to real-time PCR using Taqman-primer probe sets for GFPT2, XBP1U, and GRP78.

[12] = test system: SNCA-3x iPSn; test: GFPT2 western blot; format: cell-based, human; conditions: tunicamycin
Method: as §1, §5

[13] = test system: isogenic controls; test: GFPT2 western blot; format: cell-based, human; conditions: isogenic controls of SNCA-3x; tunicamycin
Method: as §1, §5

[14] = test system: wt iPSn; test: Quantitative RT-PCR mRNA analysis; format: cell-based, human; conditions: tunicamycin 5 ug/ml, 24 h
Method: as §4, §5

[15] = test system: control iPSn; test: N-glycosylated proteins by Con A-biotin western blot; format: cell-based, human; conditions: tunicamycin 5 ug/ml, 24 hours
Method: as §1, §5

C[C@H]1CCC/C=C/[C@@H]2C[C@H](O)C[C@H]2[C@H](O)/C=C/C(=O)O1 [BFA]
XBP1-S [1]: dramatic upregulation of XBP1-S | mRNA/protein levels of ER chaperones including GRP78, GRP94, and CANX [1]: significantly increased mRNA/protein levels of ER chaperones

C#Cc1cccc(-c2cc(=O)n(C)c3ccc([C@](O)(c4ccc(Cl)cc4)c4cncn4C)cc23)c1 [FTI, 6-[(R)-(4-chlorophenyl)hydroxy(1-methyl-1H-imidazol-5-yl)methyl]-4-(3-ethynylphenyl)-1-methyl-2(1H)-Quinolinone]
GCase maturation [2]: minimal effects | α-syn levels [2]: minimal effects

CC(=O)NC1C(O)[C@H](O)C(CO)O[C@H]1O (stereo partly drawn) [GlcNAc, β-D-(acetylamino)-2-deoxy-glucopyranose]
reduction in pathological α-syn [3]: ~75% | glycosylated and mature forms of Hex B ([4]; 10 mM GlcNAc for 7 days): enhanced the glycosylated and mature forms of Hex B | increase in the levels of mature, soluble GCase [5]: 2 fold | neuron viability (neurofilament / neurite content) [6]: improved neuron viability | increase of GCase activity levels [7]: ~2 fold | N-glycosylated proteins (Con A) [8]: completely restored the levels of N-glycosylation to control levels

C/C=C(/C)C(=O)O[C@H]1C(C)=C2[C@H]([C@@H]1OC(=O)CCCCCCC)[C@@](C)(OC(C)=O)C[C@H](OC(=O)CCC)[C@@]1(O)[C@H]2OC(=O)[C@@]1(C)O [Tg]
XBP1-S [1]: dramatic upregulation of XBP1-S | mRNA/protein levels of ER chaperones including GRP78, GRP94, and CANX [1]: significantly increased mRNA/protein levels of ER chaperones | phospho-eIF2α ([1]; isogenic controls and SNCA-3X DA neurons, 30 nM Tg): increased phospho-eIF2α to a similar degree | GRP78 expression (ER stress) [9]: increased GRP78 expression

tunicamycin
UPR-responsive transcripts XBP1 and GRP78 ([10]; A53T iPSn versus Corr, tunicamycin): less responsive | upregulation of GFPT2 mRNA ([10]; A53T iPSn, tunicamycin 5 ug/ml, 24 h): ~1.2 fold | Hex B glycosylation [11]: blocked Hex B glycosylation | Hex B response to tunicamycin ([4]; A53T iPSn compared to controls): reduced response | GFPT2 protein [12]: no effect | elevation of GFPT2 protein [13]: 60% | N-glycosylated proteins (Con A) [8]: no effect | upregulation of GFPT2 mRNA [14]: ~2 fold | reduction of N-glycans [15]: ~50%
